“Also recorded” adds a separate entry of the source.
Tests used:
[1] = tested on: H3K9me3 and H3K36me3 peaks; assay: ChIP-seq of H3K9me3 and H3K36me3 in Rh30 cells; format: cell-based, human; conditions: 1μM, 24 hr
KDM4B [2] = biological target: T1, KDM4B (Homo sapiens, UniProt O94953); assay: Western blot of histone marks in 293T cells expressing KDM4B; format: cell-based; conditions: treated 24 hours
T1 sequence (O94953 1-1096): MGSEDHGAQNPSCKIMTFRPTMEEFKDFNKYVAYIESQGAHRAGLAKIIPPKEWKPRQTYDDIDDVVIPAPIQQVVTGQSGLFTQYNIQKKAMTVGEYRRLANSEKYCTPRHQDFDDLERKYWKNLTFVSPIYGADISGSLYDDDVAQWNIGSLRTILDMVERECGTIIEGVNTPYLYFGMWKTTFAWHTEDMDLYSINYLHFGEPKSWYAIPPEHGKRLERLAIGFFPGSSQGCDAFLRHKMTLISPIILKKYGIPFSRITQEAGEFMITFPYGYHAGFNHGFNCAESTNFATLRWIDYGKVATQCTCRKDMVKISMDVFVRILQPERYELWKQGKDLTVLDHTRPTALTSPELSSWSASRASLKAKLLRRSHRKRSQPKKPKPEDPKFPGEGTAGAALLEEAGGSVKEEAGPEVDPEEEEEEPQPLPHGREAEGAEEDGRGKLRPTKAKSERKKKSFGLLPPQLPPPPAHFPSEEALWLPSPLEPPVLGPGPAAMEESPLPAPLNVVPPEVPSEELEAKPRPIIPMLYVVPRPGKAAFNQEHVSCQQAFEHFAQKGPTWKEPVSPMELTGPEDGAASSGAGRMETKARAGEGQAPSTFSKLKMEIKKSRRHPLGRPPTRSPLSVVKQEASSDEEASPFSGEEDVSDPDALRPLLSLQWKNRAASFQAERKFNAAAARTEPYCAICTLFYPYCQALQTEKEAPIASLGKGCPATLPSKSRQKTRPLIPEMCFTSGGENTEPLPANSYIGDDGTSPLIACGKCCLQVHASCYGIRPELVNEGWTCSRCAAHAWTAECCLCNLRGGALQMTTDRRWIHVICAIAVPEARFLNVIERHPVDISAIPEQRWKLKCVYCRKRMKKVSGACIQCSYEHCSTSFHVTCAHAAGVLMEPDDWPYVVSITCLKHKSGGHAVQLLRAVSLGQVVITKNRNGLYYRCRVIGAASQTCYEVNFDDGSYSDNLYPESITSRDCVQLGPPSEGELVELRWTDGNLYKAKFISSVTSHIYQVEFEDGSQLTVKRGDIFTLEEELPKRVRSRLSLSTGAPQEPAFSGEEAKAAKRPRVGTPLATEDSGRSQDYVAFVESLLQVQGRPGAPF

PAX3-FOXO1 = assay: Western blot of PAX3-FOXO1 in Rh30 cells; format: cell-based; conditions: 24 hr
KDM5A = KDM5A (Homo sapiens, UniProt P29375); assay: ALPHA Screen demethylation assay; format: biochemical; conditions: IC50 (μM) KDM5A
Sequence of KDM5A (P29375 whole entry): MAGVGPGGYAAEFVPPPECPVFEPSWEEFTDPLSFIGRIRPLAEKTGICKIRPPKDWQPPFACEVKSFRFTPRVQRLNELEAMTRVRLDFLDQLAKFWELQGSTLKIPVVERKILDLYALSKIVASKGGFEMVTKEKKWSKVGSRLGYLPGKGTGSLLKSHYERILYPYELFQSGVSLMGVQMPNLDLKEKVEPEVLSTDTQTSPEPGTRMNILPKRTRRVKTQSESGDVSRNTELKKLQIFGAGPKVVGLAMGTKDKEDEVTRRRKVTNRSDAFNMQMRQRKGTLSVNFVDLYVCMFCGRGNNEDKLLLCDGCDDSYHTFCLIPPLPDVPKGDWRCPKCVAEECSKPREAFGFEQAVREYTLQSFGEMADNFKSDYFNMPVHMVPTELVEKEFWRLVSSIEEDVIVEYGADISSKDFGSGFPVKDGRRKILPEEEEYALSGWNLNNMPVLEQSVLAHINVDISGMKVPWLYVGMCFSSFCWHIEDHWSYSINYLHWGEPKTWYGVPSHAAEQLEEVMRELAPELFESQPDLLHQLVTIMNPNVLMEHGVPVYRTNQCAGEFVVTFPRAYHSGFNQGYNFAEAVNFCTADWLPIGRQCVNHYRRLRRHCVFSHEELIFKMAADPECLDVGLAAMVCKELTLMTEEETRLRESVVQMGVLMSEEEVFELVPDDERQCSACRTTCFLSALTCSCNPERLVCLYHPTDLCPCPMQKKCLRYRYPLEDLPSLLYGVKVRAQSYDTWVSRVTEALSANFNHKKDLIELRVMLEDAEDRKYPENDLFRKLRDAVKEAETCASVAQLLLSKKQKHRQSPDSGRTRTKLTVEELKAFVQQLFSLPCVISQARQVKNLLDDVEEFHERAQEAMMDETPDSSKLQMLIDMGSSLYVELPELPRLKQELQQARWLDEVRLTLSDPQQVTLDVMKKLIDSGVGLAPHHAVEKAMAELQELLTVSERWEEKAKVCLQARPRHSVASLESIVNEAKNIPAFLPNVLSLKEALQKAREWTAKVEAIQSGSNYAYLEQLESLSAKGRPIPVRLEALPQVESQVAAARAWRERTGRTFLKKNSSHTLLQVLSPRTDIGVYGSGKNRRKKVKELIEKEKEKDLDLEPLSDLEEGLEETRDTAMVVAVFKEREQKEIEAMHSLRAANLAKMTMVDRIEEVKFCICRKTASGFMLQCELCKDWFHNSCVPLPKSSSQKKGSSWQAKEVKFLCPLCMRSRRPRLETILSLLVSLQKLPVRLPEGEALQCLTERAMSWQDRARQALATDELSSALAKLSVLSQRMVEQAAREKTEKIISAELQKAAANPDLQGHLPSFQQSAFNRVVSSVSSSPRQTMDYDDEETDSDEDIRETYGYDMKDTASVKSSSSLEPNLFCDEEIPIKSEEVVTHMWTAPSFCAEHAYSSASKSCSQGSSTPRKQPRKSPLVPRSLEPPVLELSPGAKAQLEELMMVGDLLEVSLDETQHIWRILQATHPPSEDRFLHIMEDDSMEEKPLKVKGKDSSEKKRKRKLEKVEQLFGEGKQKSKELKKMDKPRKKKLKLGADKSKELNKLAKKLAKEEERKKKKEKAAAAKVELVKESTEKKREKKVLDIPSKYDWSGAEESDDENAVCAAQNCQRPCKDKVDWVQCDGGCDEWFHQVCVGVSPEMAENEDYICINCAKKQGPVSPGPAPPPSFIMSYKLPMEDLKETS

KDM4C = biological target: T2, KDM4C (Homo sapiens, UniProt Q9H3R0); assay: ALPHA Screen demethylation assay; format: biochemical; conditions: IC50 (μM) KDM4C
T2 sequence (Q9H3R0 1-1056): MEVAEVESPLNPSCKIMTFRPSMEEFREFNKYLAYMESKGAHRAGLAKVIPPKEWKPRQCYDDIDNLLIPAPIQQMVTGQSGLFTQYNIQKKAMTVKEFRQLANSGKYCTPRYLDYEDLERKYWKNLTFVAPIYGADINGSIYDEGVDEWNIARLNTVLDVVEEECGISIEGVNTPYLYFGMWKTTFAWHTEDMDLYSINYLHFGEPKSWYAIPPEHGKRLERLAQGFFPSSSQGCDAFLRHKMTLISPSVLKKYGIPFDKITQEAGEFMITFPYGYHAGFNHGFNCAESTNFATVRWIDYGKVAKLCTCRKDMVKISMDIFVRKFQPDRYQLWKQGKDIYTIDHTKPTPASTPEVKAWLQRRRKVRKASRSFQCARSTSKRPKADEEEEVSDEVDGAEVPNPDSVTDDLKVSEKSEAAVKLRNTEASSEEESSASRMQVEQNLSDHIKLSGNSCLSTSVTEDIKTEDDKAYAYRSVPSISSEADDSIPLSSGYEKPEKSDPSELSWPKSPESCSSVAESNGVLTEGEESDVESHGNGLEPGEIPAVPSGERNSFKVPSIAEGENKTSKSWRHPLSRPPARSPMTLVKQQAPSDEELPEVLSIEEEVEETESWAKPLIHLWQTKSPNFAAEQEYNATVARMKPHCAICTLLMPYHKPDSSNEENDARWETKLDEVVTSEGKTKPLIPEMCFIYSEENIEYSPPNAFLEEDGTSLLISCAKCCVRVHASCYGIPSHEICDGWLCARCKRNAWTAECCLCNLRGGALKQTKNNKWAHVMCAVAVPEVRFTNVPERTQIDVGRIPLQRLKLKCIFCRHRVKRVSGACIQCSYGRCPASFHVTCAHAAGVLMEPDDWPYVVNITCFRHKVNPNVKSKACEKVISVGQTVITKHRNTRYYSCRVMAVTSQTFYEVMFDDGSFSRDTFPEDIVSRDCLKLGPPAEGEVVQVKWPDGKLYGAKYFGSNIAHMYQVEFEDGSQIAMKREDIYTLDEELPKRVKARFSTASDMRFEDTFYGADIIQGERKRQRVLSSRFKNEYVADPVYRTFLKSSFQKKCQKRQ

KDM4B [3] = biological target: T1, KDM4B; assay: Western blot of histone methyl marks in U2OS cells expressing KDM4B; conditions: 1uM, not on H3K4me3
[4] = tested on: KDM4 substrates H3K9me3 and H3K36me3; assay: Western blot of H3K9me3 and H3K36me3 in Rh30 cells; format: cell-based; conditions: 24 hr
KDM4B [5] = biological target: T3, KDM4B (Homo sapiens, UniProt O94953); assay: biochemical; conditions: for KDM4B inhibitory activity (in words): Figure S2; for inhibition at 15 µM: read-out: %Inhibition of KDM4B; for %Inhibition of KDM4B: at 15 μM, screening
T3 sequence (O94953 1-348): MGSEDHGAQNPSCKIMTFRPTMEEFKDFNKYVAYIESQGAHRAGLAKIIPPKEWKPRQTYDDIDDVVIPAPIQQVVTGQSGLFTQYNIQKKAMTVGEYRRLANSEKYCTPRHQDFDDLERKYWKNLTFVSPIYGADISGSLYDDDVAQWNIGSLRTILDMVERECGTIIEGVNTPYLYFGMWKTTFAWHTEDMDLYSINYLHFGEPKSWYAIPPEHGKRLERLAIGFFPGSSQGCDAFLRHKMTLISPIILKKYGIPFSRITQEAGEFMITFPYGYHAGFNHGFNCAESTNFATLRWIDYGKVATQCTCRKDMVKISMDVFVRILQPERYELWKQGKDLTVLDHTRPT

eRMS xenograft = conditions: ref Kang et al., 2012; Lock et al., 2013; cited from earlier work
aRMS xenograft = conditions: ref Kang et al., 2012; Lock et al., 2013; cited from earlier work
Rh30 cells = assay: Crystal violet staining proliferation assay; format: cell-based; conditions: 5 days, at the concentrations that hit the targets

For `COC1=C2C[C@@H](C)C[C@H](OC)[C@H](O)[C@@H](C)/C=C(\C)[C@H](OC(N)=O)[C@@H](OC)/C=C\C=C(/C)C(=O)NC(=CC1=O)C2=O` [geldanamycin], the H3K36me3 peaks decreased [1] was 213 peaks, the H3K36me3 peaks increased [1] was 1430 peaks and the “peaks of H3K9me3 induced” value ([1]; p < 0.05, logFC = 0.5) was “Four thousand four hundred six”. For the same compound, the “KDM4B activity in demethylating H3K9me3” value (KDM4B [2]) was “greatly inhibited KDM4B activity”, the “PAX3-FOXO1 expression (protein)” value (PAX3-FOXO1) was “reduced” and the IC50 (KDM5A) was < 1 µM. For the same compound, the IC50 (KDM4C) was < 1 µM, the “KDM4B catalytic activity on its H3K9me3 and H3K36me3 substrates” value (KDM4B [3]) was “blocked KDM4B catalytic activity” and the “H3K9me3 and H3K36me3 levels” value [4] was “induced an increase of H3K9me3 and H3K36me3”.
In the case of `CC(C)c1cc(C(=O)N2Cc3ccc(CN4CCN(C)CC4)cc3C2)c(O)cc1O` [AT13387], the “KDM4B inhibitory activity (in words)” value (KDM4B [5]) is given as “minimal effect on KDM4B activity; also recorded: did not inhibit KDM4B activity”, the inhibition at 15 µM (KDM4B [5]) is given as < 15% and the eRMS xenograft growth (eRMS xenograft) is given as “no effect on either aRMS or eRMS xenograft growth”. For the same compound, the “PAX3-FOXO1 expression (protein)” value (PAX3-FOXO1) was “reduced the expression of PAX3-FOXO1” and the aRMS xenograft growth (aRMS xenograft) was “no effect”.
With `CCOC(=O)CCNc1cc(N2CCc3ccccc3CC2)nc(-c2ccccn2)n1` [GSK-J4] the anti-proliferative effect (Rh30 cells) was “no anti-proliferative effect”.
For `CCc1c(O)cc(O)c(C(=O)c2ccc(OCCN3CCOCC3)c(OC)c2)c1CC(=O)N(CCOC)CCOC.Cl` [KW2478], the “%Inhibition of KDM4B” value (KDM4B [5]) was < 15%.
In the case of `CC(C)c1cc(-c2n[nH]c(=O)n2-c2ccc3c(ccn3C)c2)c(O)cc1O` [Ganetespib], the “KDM4B inhibitory activity (in words)” value (KDM4B [5]) is listed as “did not inhibit KDM4B activity”, the inhibition at 15 µM (KDM4B [5]) is listed as < 15% and the eRMS xenograft growth (eRMS xenograft) is listed as “no effect on either aRMS or eRMS xenograft growth”. For the same compound, the aRMS xenograft growth (aRMS xenograft) was “no effect”.
For `CN(NC(=O)CC(=O)NN(C)C(=S)c1ccccc1)C(=S)c1ccccc1` [STA-4783], the inhibition at 15 µM (KDM4B [5]) was < 15%.
With `CCNC(=O)c1noc(-c2cc(C(C)C)c(O)cc2O)c1-c1ccc(CN2CCOCC2)cc1` [NVP-AUY922] the inhibition at 15 µM (KDM4B [5]) was < 15%.
With `CC1(C)CC(=O)c2c(C(F)(F)F)nn(-c3ccc(C(N)=O)c(N[C@H]4CC[C@H](OC(=O)CN)CC4)c3)c2C1` [SNX-5422] the inhibition at 15 µM (KDM4B [5]) was < 15%.
For `CC[C@@H](C)Nc1cc(C(=O)N[C@H]2C[C@H]3CC[C@@H](C2)N3c2ccc(C(=O)C3CC3)cn2)c(C)cc1C(N)=O` [XL888], the “%Inhibition of KDM4B” value (KDM4B [5]) was < 15%.
For `CCOC(=O)c1ccnc(CNCC(=O)N(CC)CCN(C)C)c1` [KDM5-C70], the anti-proliferative effect (Rh30 cells) was “no anti-proliferative effect”.
In the case of `Cc1cc(C2CCCCC2)n(O)c(=O)c1` [ciclopirox], the “KDM4B activity in demethylating H3K9me3” value (KDM4B [2]) was “greatly inhibited KDM4B activity”.

Source: article PMC7811140 (iScience, 2020)
